Measurements: BindingDB's records for doi:10.1021/ml2002482 (2012)

Assay: Inhibition of human recombinant ICAM-1 adhesion into human Jurkat cells after 1 hr

IC50: 2.98 nM
SMILES: CS(=O)(=O)c1cccc(C[C@H](NC(=O)c2c(Cl)cc3c(c2Cl)CCN(C(=O)c2ccc4ccoc4c2)C3)C(=O)O)c1
